In patent US11597724B2, “Herbicidally active 3-phenylisoxazoline-5-carboxamides of tetrahydro and dihydrofuran carboxylic acids and esters” (Bayer Aktiengesellschaft, priority 2017, dated 2023):

Tests used:
Format in all cases: in vivo
Lolium rigidum = experiment: Post-emergence herbicidal activity against LOLRI; conditions: dosage 320 g/ha, rated about 3 weeks after treatment; for pest or weed control at 320 g/ha: Lolium rigidum, 504 h
How it was run: (§1)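 Greenhouse-grown plants sprayed post-emergence at the one-leaf stage, 2 to 3 weeks after sowing, with WP or EC formulations plus 0.5% additive at 600 l/ha water. Activity rated visually after about 3 weeks versus untreated controls (100% = plants dead, 0% = like control).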

Stellaria media = experiment: Post-emergence herbicidal activity against STEME; conditions: dosage 320 g/ha, rated about 3 weeks after treatment; for pest or weed control at 320 g/ha: Stellaria media, 504 h
How it was run: (§2)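 Greenhouse plants treated at one-leaf stage, 2–3 weeks after sowing, by spraying WP or EC formulations with 0.5% additive at 600 l/ha water. Visual rating about 3 weeks later versus untreated controls (100% = plants dead, 0% = like controls).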

Setaria viridis = experiment: Post-emergence herbicidal activity against SETVI; conditions: dosage 320 g/ha, rated about 3 weeks after treatment; for pest or weed control at 320 g/ha: Setaria viridis, 504 h
How it was run: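 Greenhouse weeds in sandy loam were sprayed at the one-leaf stage, 2–3 weeks after sowing, with WP or EC formulations plus 0.5% additive at 600 l/ha water. About 3 weeks later, damage was rated visually against untreated controls, where 100% means plants dead and 0% means like control.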

Pharbitis purpurea = experiment: Post-emergence herbicidal activity against PHBPU; conditions: dosage 320 g/ha, rated about 3 weeks after treatment; for pest or weed control at 320 g/ha: Ipomoea purpurea, 504 h
How it was run: as §1

Veronica persica = experiment: Post-emergence herbicidal activity against VERPE; conditions: dosage 320 g/ha; for pest or weed control at 320 g/ha: Veronica persica, 504 h
How it was run: as §2

[1] = Post-emergence treatment, summary over harmful plants; conditions: 504 h, application rate of 0.32 kg of active substance or less per hectare, read-out: herbicidal action, post-emergence treatment (very good herbicidal activity)
How it was run: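 Greenhouse-grown weeds and crops were sprayed at the one-leaf stage (2–3 weeks post-sowing) with WP or EC formulations plus 0.5% additive at 600 l/ha water. About 3 weeks later, activity was visually rated against untreated controls (100% = dead plants, 0% = like control).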

Echinochloa crus-galli = experiment: Post-emergence herbicidal activity against ECHCG; conditions: dosage 320 g/ha, rated about 3 weeks after treatment; for pest or weed control at 320 g/ha: Echinochloa crus-galli, 504 h
How it was run: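 Greenhouse pot plants sprayed post-emergence at one-leaf stage (2-3 weeks after sowing) with WP or EC formulations, 0.5% additive, 600 l/ha water. Visual rating about 3 weeks later versus untreated controls: 100% = plants dead, 0% = like control.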

Avena fatua = experiment: Pre-emergence herbicidal activity against AVEFA; conditions: dosage 80 g/ha; for pest or weed control at 80 g/ha: Avena fatua, 504 h, read-out: Pre-emergence herbicidal activity against AVEVA in % (AVEFA)
From the text: 1. Pre-Emergence Herbicidal Action and Crop Plant Compatibility Seeds of monocotyledonous and dicotyledonous weed plants and crop plants are placed in plastic or wood fiber pots and covered with soil. The compounds of the invention, formulated in the form of wettable powders (WP) or as emulsion concentrates (EC), are then applied onto the surface of the covering soil as aqueous suspension or emulsion with addition of 0.5% additive at a water application rate of 600 l/ha (converted). After the treatment, the pots are placed in a greenhouse and kept under good growth conditions for the trial plants. After about 3 weeks, the effect of the preparations is scored visually in comparison with untreated controls as percentages. For example, 100% activity=the plants have died, 0% activity=like control plants. AMARE: Amaranthus retroflexus AVEFA: Avena fatua

Row | Structure (SMILES) | pest or weed control at 320 g/ha (Lolium rigidum) | pest or weed control at 320 g/ha (Stellaria media) | pest or weed control at 320 g/ha (Setaria viridis) | pest or weed control at 320 g/ha (Pharbitis purpurea) | pest or weed control at 320 g/ha (Veronica persica) | pest or weed control at 320 g/ha [1] | pest or weed control at 320 g/ha (Echinochloa crus-galli) | pest or weed control at 80 g/ha (Avena fatua) | Post-emergence herbicidal activity against LOLRI in % (Lolium rigidum) | Post-emergence herbicidal activity against STEME in % (Stellaria media) | Post-emergence herbicidal activity against SETVI in % (Setaria viridis) | Post-emergence herbicidal activity against PHBPU in % (Pharbitis purpurea) | Post-emergence herbicidal activity against VERPE in % (Veronica persica) | Post-emergence herbicidal activity against ECHCG in % (Echinochloa crus-galli) | Pre-emergence herbicidal activity against AVEVA in % (AVEFA) (Avena fatua)
1 | C=C[C@]1(C(=O)N[C@H]2CO[C@@H](C(=O)OC)C2)CC(c2cc(F)cc(F)c2)=NO1 (mixture of isomers) [I-10, methyl cis-4-[[(5S)-3-(3,5-difluorophenyl)-5-vinyl-4H-isoxazole-5-carbonyl]amino]tetrahydrofuran-2-carboxylate] | 100% | 90% | 90% | 90% | 80% | 80 to 100% | 100% | 100% |  |  |  |  |  |  | 
2 | C=C[C@]1(C(=O)N[C@H]2CO[C@@H](C(=O)OCC)C2)CC(c2cc(F)cc(F)c2)=NO1 (mixture of isomers) [I-35, ethyl cis-4-[[(5S)-3-(3,5-difluorophenyl)-5-vinyl-4H-isoxazole-5-carbonyl]amino]tetrahydrofuran-2-carboxylate] | 100% | 90% | 90% | 90% | 80% | 80 to 100% | 100% | 100% |  |  |  |  |  |  | 
3 | C=C[C@]1(C(=O)N[C@H]2CO[C@@H](C(=O)OC(C)C)C2)CC(c2cc(F)cc(F)c2)=NO1 (mixture of isomers) [I-36, isopropyl cis-4-[[(5S)-3-(3,5-difluorophenyl)-5-vinyl-4H-isoxazole-5-carbonyl]amino]tetrahydrofuran-2-carboxylate] | 90% | 90% | 80% | 80% | 90% | 80 to 100% | 90% | 100% |  |  |  |  |  |  | 
4 | C=C[C@]1(C(=O)N[C@H]2CO[C@@H](C(=O)OCc3ccccc3)C2)CC(c2cc(F)cc(F)c2)=NO1 (mixture of isomers) [I-37, benzyl cis-4-[[(5S)-3-(3,5-difluorophenyl)-5-vinyl-4H-isoxazole-5-carbonyl]amino]tetrahydrofuran-2-carboxylate] | 90% | 90% | 80% | 90% | 80% | 80 to 100% | 90% | 100% |  |  |  |  |  |  | 
5 | C=C[C@]1(C(=O)N[C@H]2CO[C@@H](C(=O)OC(C)(C)C)C2)CC(c2cc(F)cc(F)c2)=NO1 (mixture of isomers) [I-38, tert-butyl cis-4-[[(5S)-3-(3,5-difluorophenyl)-5-vinyl-4H-isoxazole-5-carbonyl]amino]tetrahydrofuran-2-carboxylate] | 90% | 90% | 100% | 90% | 80% | 80 to 100% | 90% | 90% |  |  |  |  |  |  | 
6 | CC1(C(=O)NC2COC(C(=O)O)C2)CC(c2cc(F)cc(F)c2)=NO1 (mixture of isomers) [I-41] |  |  |  |  |  |  |  |  | 100% | 90% | 90% | 90% | 80% | 100% | 100%
7 | CC(C)(C)OC(=O)C1CC(NC(=O)C2(C)CC(c3cc(F)cc(F)c3)=NO2)CO1 (mixture of isomers) [I-42] |  |  |  |  |  |  |  |  | 100% | 90% | 90% | 90% | 80% | 100% | 90%
8 | CCOC(=O)C1CC(NC(=O)C2(C)CC(c3cc(F)cc(F)c3)=NO2)CO1 (mixture of isomers) [I-43] |  |  |  |  |  |  |  |  | 100% | 100% | 80% | 90% | 90% | 100% | 100%
9 | CC1(C(=O)NC2COC(C(=O)OCc3ccccc3)C2)CC(c2cc(F)cc(F)c2)=NO1 (mixture of isomers) [I-45] |  |  |  |  |  |  |  |  | 100% | 90% | 90% | 90% | 80% | 100% | 100%
10 | COC(=O)C1CC(NC(=O)C2(C)CC(c3cc(F)cc(F)c3)=NO2)CO1 (mixture of isomers) [I-48] |  |  |  |  |  |  |  |  | 90% | 90% | 80% | 80% | 80% | 90% | 100%
11 | C=C[C@]1(C(=O)N[C@H]2CO[C@@H](C(=O)OC)C2)CC(c2cc(F)cc(F)c2)=NO1 (single isomer, unassigned) [I-11] | 100% | 90% | 90% | 90% |  |  | 90% |  |  |  |  |  |  |  | 100%
12 | C=C[C@]1(C(=O)N[C@H]2CO[C@@H](C(=O)OC)C2)CC(c2cc(F)cc(F)c2)=NO1 (single isomer, unassigned) [I-12] |  |  |  |  |  | 80 to 100% |  | 100% | 100% | 90% | 90% | 90% |  | 90% | 
13 | C=CC1(C(=O)NC2=C(C(=O)OCC)COC2)CC(c2cc(F)cc(F)c2)=NO1 (stereo not drawn) [I-23, ethyl 4-[[3-(3,5-difluorophenyl)-5-vinyl-4H-isoxazole-5-carbonyl]amino]-2,5-dihydrofuran-3-carboxylate] | 90% | 90% |  | 90% |  | 80 to 100% | 90% | 90% |  |  |  |  |  |  | 
14 | COC(=O)C1COCC1NC(=O)C1(OC)CC(c2cc(Cl)cc(Cl)c2)=NO1 (stereo not drawn) [I-29, methyl 4-[[3-(3,5-dichlorophenyl)-5-methoxy-4H-isoxazole-5-carbonyl]amino]tetrahydrofuran-3-carboxylate] |  | 80% | 80% | 80% | 90% | 80 to 100% | 90% | 80% |  |  |  |  |  |  | 
15 | CC(C)OC(=O)C1CC(NC(=O)C2(C)CC(c3cc(F)cc(F)c3)=NO2)CO1 (stereo not drawn) [I-44] |  |  |  |  |  |  |  |  | 100% | 90% | 90% | 90% | 80% | 100% | 90%
16 | COC(=O)C1CC(NC(=O)C2(C(C)(F)F)CC(c3cc(F)cc(F)c3)=NO2)CO1 (stereo not drawn) [I-49] |  |  |  |  |  |  |  |  | 90% | 90% |  | 80% | 80% | 80% | 100%
